The text below walks through data of patent publication US20060281787A1, “Bisindolyl maleimides useful for treating prostate cancer and akt-mediated diseases” (priority 2003, published 2006).

By EC50 is commonly meant the concentration at which the effect is half-maximal.

In experiment [1] the target is T1, recombinant PDK-1 (Homo sapiens, UniProt O15530).
T1 construct: purchased UBI
T1 sequence (O15530 1-556): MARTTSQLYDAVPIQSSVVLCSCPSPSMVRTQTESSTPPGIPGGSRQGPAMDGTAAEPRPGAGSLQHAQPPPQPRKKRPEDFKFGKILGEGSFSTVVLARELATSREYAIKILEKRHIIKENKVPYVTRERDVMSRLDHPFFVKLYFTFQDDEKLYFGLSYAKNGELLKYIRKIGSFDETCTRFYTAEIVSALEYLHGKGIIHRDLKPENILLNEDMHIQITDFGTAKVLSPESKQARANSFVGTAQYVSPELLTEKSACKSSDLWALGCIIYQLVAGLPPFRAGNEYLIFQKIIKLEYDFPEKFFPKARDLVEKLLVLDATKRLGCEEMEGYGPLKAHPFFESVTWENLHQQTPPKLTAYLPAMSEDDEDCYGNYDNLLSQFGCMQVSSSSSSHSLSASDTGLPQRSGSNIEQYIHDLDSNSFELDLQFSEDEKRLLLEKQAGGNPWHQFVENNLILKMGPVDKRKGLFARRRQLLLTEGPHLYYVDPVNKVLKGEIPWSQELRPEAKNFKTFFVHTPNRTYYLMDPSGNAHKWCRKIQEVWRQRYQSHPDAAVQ
Briefly: PDK-1 kinase activity assay (PDK-tide phosphorylation, phosphocellulose filter plates). It is filed as biochemical. To be noted: at Km for ATP and PDKtide saturation; read-out: inhibits PDK-1, EC50. The method, then: (§1) The assay described measures the phosphorylation of the PDK1 consensus phosphorylation site PDK-tide peptide ([…]; cat # 14452, lot 23876U) by recombinant PDK-1 (UBI) at Km for ATP and PDKtide saturation using phosphocellulose membrane filter plates. Phosphorylation of the p70S6 kinase substrate by recombinant p70S6 kinase is also measured similarly.

Experiment [2] has as its target recombinant p70S6 kinase (Homo sapiens, UniProt P23443). The experiment can be described thus: p70S6 kinase activity assay. It is filed as biochemical. To be noted: read-out: inhibits p70S6kinase, EC50. The method, then:
as §1

The test system of experiment [3] is human cancer cell lines derived from colon. The experiment can be described thus: Apoptosis assay (Cell Death Detection ELISA), colon. It counts as cell-based. On the procedure: Both HCT116 colon carcinoma (cat#CCL-247) and U87MG glioblastoma (cat#HTB-14) cell lines were obtained from the American Type Culture Collection (ATCC). The standard growth media differed for each cell line but all were grown in 10% heat-inactivated FBS (Invitrogen cat# 10082-147), 37° C., 5% CO2 atmosphere and in a humidified chamber. Cell passage was completed one to two times per week using 0.25% trypsin/1 mM EDTA (Invitrogen, cat# 25200-056) solution maintaining cells in log phase growth. U87MG cells were cultured in DMEM media (Invitrogen cat# 11965-092), 1 mM non-essential amino acids (NEAA), and 0.1 mM Sodium Pyruvate. HCT116 cells were grown in McCoy's 5A Modified media (Invitrogen, cat# 16600-082), 0.15% sodium bicarbonate, 0.1 mM HEPES, 25 mM D-glucose and 0.1 mM sodium Pyruvate.
(§2) Apoptosis assays were executed using the Cell Death Detection ELISAPIUS (Roche, 1774425) assay kit strictly following the enclosed protocol.

For experiment [4], the system named is human cancer cell lines derived from lung. The experiment can be described thus: Apoptosis assay (Cell Death Detection ELISA), lung. It counts as cell-based.
Text: as §2
On the technique in general: ELISA stands for enzyme-linked immunosorbent assay.

Experiment [5] deals with human cancer cell lines derived from prostate (both androgen-dependent and independent cell lines). The experiment can be described thus: Apoptosis assay (Cell Death Detection ELISA), prostate. It counts as cell-based.
Text: as §2

Experiment [6] concerns human cancer cell lines from non-Hodgkin's lymphoma. The experiment can be described thus: Apoptosis assay (Cell Death Detection ELISA), non-Hodgkin's lymphoma. It counts as cell-based.
Text: as §2

Experiment [7] has as its system GSK3β. Briefly: Phosphorylation of GSK3β (western blot, AKT pathway readout). It counts as cell-based. Particulars: readout of AKT pathway activity. On the procedure:
(§3) Protein lysates were prepared by incubation in RIPA Buffer (50 mM Tris-HCl, 150 mM NaCl, 1 mM EDTA, 1% NP40, 0.25% Sodium deoxycholate, 1 mM sodium fluoride, 1 mM sodium orthovanadate and Complete™ protease inhibitors (Roche Cat# 10019600) for one hour with rotation. The lysate was then centrifuged (10 minutes@ 10,000 rpm), supernatant harvested and protein concentrations were determined using the Bio-Rad DC Protein Assay (cat# 500-0122). Proteins were separated by SDS-PAGE using 4-20% tris-glycine gels (Invitrogen, cat# EC6028) and transferred to Hyper™-bond PVDF membrane (Amersham, cart# rpn303F). All primary antibodies were incubated overnight at 4° C. in 5% milk/1×PBS (Gibco, cat# 70011-044) solution. Horseradish peroxidase (HRP) linked secondary antibodies (Santa Cruz, cat# sc-2055, sc-2054) were incubated for a minimum of two hours prior to detection. Specific signal was determined by the Lumi-Imager™ and Lumi-Analyst software to define changes in protein expression and phosphorylation. […]
For orientation: Immunoblotting shows a protein as a band on a membrane.

Experiment [8] has as its system forkhead transcription factor AFX. The experiment can be described thus: Phosphorylation of AFX (western blot, AKT pathway readout). To be noted: readout of AKT pathway activity. It is filed as cell-based. The method, then:
as §3

In experiment [9] the test system is 4EBP1. The experiment can be described thus: Phosphorylation of 4EBP1 (western blot, AKT pathway readout). It counts as cell-based. To be noted: readout of AKT pathway activity. The method, then: as §3
The subject of experiment [10] is ribosomal protein S6. Briefly: Phosphorylation of ribosomal protein S6 (western blot, AKT pathway readout). It is filed as cell-based. To be noted: readout of AKT pathway activity. On the procedure: as §3
Experiment [11] concerns GSK3β ser9 phosphorylation. The experiment can be described thus: GSK3β ser9 phosphorylation in xenograft tissues of treated mice. It counts as in vivo. To be noted: human tumor xenograft-bearing mice. On the procedure:
as §3
Approximately 5×10^6 tumor cells are implanted subcutaneously into the flank of athymic nude mice (Harlan, Indianapolis, Ind.). […] Body weight and tumor size are monitored weekly or twice weekly.

In experiment [12] the test system is HCT116 colon cancer xenografts. The experiment can be described thus: In vivo tumor inhibition, HCT116 xenografts. Further details: species or system athymic nude mice. From the text: (§4) Approximately 5×10^6 tumor cells are implanted subcutaneously into the flank of athymic nude mice (Harlan, Indianapolis, Ind.). Treatment of tumors begins when the tumors reach 100 mm^3 and continues for 21 consecutive days twice per day PO. Body weight and tumor size are monitored weekly or twice weekly.

The test system of experiment [13] is U87MG glioblastoma xenografts. The experiment can be described thus: In vivo tumor inhibition, U87MG xenografts. More on the design: species or system athymic nude mice.
Text: as §4

The subject of experiment [14] is xenografts from the androgen-independent prostate carcinoma cell line PC3. Briefly: In vivo tumor inhibition, PC3 xenografts. Further details: species or system athymic nude mice.
Text: as §4

recombinant p70S6 kinase, sequence (P23443 whole entry): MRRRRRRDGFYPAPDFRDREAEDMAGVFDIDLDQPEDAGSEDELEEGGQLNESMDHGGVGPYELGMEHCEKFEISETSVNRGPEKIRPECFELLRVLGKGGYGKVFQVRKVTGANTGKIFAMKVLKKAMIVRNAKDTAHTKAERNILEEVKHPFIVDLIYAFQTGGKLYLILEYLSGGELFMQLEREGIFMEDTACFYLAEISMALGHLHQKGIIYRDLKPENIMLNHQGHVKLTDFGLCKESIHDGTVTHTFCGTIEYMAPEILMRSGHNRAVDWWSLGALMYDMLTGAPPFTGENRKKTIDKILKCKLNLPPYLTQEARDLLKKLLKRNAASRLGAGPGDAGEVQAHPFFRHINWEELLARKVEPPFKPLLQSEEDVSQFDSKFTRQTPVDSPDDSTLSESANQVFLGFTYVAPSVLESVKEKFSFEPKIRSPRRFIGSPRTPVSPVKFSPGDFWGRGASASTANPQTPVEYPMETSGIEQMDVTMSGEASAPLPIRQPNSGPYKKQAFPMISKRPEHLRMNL

On to `Cn1cc(C2=C(c3cn(C4CCNCC4)c4ccccc34)C(=O)NC2=O)c2ccccc21` [Compound 1], for which the concentration for a half-maximal effect (EC50) is 0.37 µM in experiment [1] and < 0.5 µM in experiment [2]. Further, the induction of apoptosis entry in [3], in [4], in experiment [5] and in [6] was “induces apoptosis” in each case. Also, the “phosphorylation of GSK3β” value in [7] is “suppresses phosphorylation”. In addition, the “phosphorylation of the forkhead transcription factor AFX” value in [8] is “suppresses phosphorylation”. Further, the “phosphorylation of 4EBP1” value in [9] is on record as “suppresses phosphorylation”. In addition, the “phosphorylation of ribosomal protein S6” value in experiment [10] is reported as “suppresses phosphorylation”. Further, the “GSK3β ser9 phosphorylation in xenograft tissues” value in [11] (including an androgen-independent prostate carcinoma cell line) is “suppresses GSK3β ser9 phosphorylation”. In addition, the “duration of suppression of GSK3β ser9 phosphorylation post dosing” value in experiment [11] (post dosing) is “up to 8 hours”. Besides, the anti-tumor efficacy entry in experiment [12], in experiment [13] and in experiment [14] was “has been demonstrated” throughout.
